According to ChEMBL document CHEMBL1155271, “Synthesis, crystal structures and antibacterial activity studies of aza-derivatives of phytoalexin from cotton plant--gossypol” (2009):
Values after ≈ are worked out from the molar mass of the structure shown. Active and inactive are the calls of the source. The rule behind the calls is not given here.

Experiments:
Staphylococcus aureus [1] = test: Antimicrobial activity against methicillin-resistant Staphylococcus aureus 218/7 by twofold dilution technique; format: functional
Staphylococcus aureus [2] = test: Antimicrobial activity against methicillin-resistant Staphylococcus aureus 144/6 by twofold dilution technique; format: functional
Staphylococcus aureus [3] = test: Antimicrobial activity against methicillin-resistant Staphylococcus aureus 143/6 by twofold dilution technique; format: functional
Staphylococcus aureus [4] = test: Antimicrobial activity against Methicillin susceptible Staphylococcus aureus 212/7 by twofold dilution technique; format: functional
Bacillus cereus [5] = test: Antimicrobial activity against Bacillus cereus ATCC 11778 after 18 hrs by twofold dilution technique; format: functional; conditions: ATCC 11778, 18 h
Staphylococcus aureus [6] = test: Antimicrobial activity against Staphylococcus aureus NCTC 4163 after 18 hrs by twofold dilution technique; format: functional; conditions: NCTC 4163, 18 h
Bacillus subtilis [7] = test: Antimicrobial activity against Bacillus subtilis ATCC 6633 after 18 hrs by twofold dilution technique; format: functional; conditions: ATCC 6633, 18 h
Staphylococcus aureus [8] = test: Antimicrobial activity against Methicillin susceptible Staphylococcus aureus 239/7 by twofold dilution technique; format: functional
Micrococcus luteus [9] = test: Antimicrobial activity against Micrococcus luteus ATCC 10240 at 5 ug after 18 hrs by disk diffusion method; format: functional; conditions: ATCC 10240, 18 h, read-out: DIZ
Staphylococcus aureus [10] = test: microbe, parasite or virus in culture; conditions: NCTC 4163, 18 h, read-out: DIZ
Description: Antimicrobial activity against Staphylococcus aureus NCTC 4163 at 5 ug after 18 hrs by disk diffusion method

[11] = system: Staphylococcus epidermidis; test: Antimicrobial activity against Staphylococcus epidermidis ATCC 12228 by twofold dilution technique; format: functional
Staphylococcus aureus [12] = test: Antimicrobial activity against Methicillin susceptible Staphylococcus aureus 207/7 by twofold dilution technique; format: functional
Staphylococcus aureus [13] = test: microbe, parasite or virus in culture; conditions: ATCC 25923, 18 h, read-out: DIZ
Description: Antimicrobial activity against Staphylococcus aureus ATCC 25923 at 5 ug after 18 hrs by disk diffusion method

Enterococcus hirae [14] = test: Antimicrobial activity against Enterococcus hirae ATCC 10541 after 18 hrs by twofold dilution technique; format: functional; conditions: ATCC 10541, 18 h
Staphylococcus aureus [15] = test: microbe, parasite or virus in culture; conditions: ATCC 6538, 18 h, read-out: DIZ
Description: Antimicrobial activity against Staphylococcus aureus ATCC 6538 at 5 ug after 18 hrs by disk diffusion method

Staphylococcus aureus [16] = test: Antimicrobial activity against methicillin-resistant Staphylococcus aureus 217/7 by twofold dilution technique; format: functional
Staphylococcus aureus [17] = test: Antimicrobial activity against Methicillin susceptible Staphylococcus aureus 208/7 by twofold dilution technique; format: functional
Staphylococcus aureus [18] = test: Antimicrobial activity against Methicillin susceptible Staphylococcus aureus 238/7 by twofold dilution technique; format: functional
Staphylococcus aureus [19] = test: Antimicrobial activity against Staphylococcus aureus ATCC 25923 after 18 hrs by twofold dilution technique; format: functional; conditions: ATCC 25923, 18 h
Staphylococcus aureus [20] = test: Antimicrobial activity against Methicillin susceptible Staphylococcus aureus 243/7 by twofold dilution technique; format: functional
Staphylococcus aureus [21] = test: Antimicrobial activity against methicillin-resistant Staphylococcus aureus 140/6 by twofold dilution technique; format: functional
Staphylococcus aureus [22] = test: Antimicrobial activity against methicillin-resistant Staphylococcus aureus 146/6 by twofold dilution technique; format: functional
Staphylococcus aureus [23] = test: Antimicrobial activity against methicillin-resistant Staphylococcus aureus 200/7 by twofold dilution technique; format: functional
Bacillus subtilis [24] = test: microbe, parasite or virus in culture; conditions: ATCC 6633, 18 h, read-out: DIZ
Description: Antimicrobial activity against Bacillus subtilis ATCC 6633 at 5 ug after 18 hrs by disk diffusion method

Staphylococcus aureus [25] = test: Antimicrobial activity against Staphylococcus aureus ATCC 29213 after 18 hrs by twofold dilution technique; format: functional; conditions: ATCC 29213, 18 h
Staphylococcus aureus [26] = test: Antimicrobial activity against Methicillin susceptible Staphylococcus aureus 237/7 by twofold dilution technique; format: functional
Micrococcus luteus [27] = test: Antimicrobial activity against Micrococcus luteus ATCC 10240 by twofold dilution technique; format: functional
Staphylococcus aureus [28] = test: Antimicrobial activity against Methicillin susceptible Staphylococcus aureus 213/7 by twofold dilution technique; format: functional
[29] = system: Staphylococcus epidermidis; test: microbe, parasite or virus in culture; conditions: ATCC 12228, 18 h, read-out: DIZ
Description: Antimicrobial activity against Staphylococcus epidermidis ATCC 12228 at 5 ug after 18 hrs by disk diffusion method

Staphylococcus aureus [30] = test: Antimicrobial activity against methicillin-resistant Staphylococcus aureus 141/6 by twofold dilution technique; format: functional
Staphylococcus aureus [31] = test: Antimicrobial activity against Methicillin susceptible Staphylococcus aureus 206/7 by twofold dilution technique; format: functional
Staphylococcus aureus [32] = test: microbe, parasite or virus in culture; conditions: ATCC 29213, 18 h, read-out: DIZ
Description: Antimicrobial activity against Staphylococcus aureus ATCC 29213 at 5 ug after 18 hrs by disk diffusion method

Staphylococcus aureus [33] = test: Antimicrobial activity against Staphylococcus aureus ATCC 6538 after 18 hrs by twofold dilution technique; format: functional; conditions: ATCC 6538, 18 h
Staphylococcus aureus [34] = test: Antimicrobial activity against methicillin-resistant Staphylococcus aureus 236/7 by twofold dilution technique; format: functional
Staphylococcus aureus [35] = test: Antimicrobial activity against methicillin-resistant Staphylococcus aureus 136/6 by twofold dilution technique; format: functional
Micrococcus luteus [36] = test: Antimicrobial activity against Micrococcus luteus ATCC 9341 at 5 ug after 18 hrs by disk diffusion method; format: functional; conditions: ATCC 9341, 18 h, read-out: DIZ
Bacillus cereus [37] = test: Antimicrobial activity against Bacillus cereus ATCC 11778 at 5 ug after 18 hrs by disk diffusion method; format: functional; conditions: ATCC 11778, 18 h, read-out: DIZ
Micrococcus luteus [38] = test: Antimicrobial activity against Micrococcus luteus ATCC 9341 after 18 hrs by twofold dilution technique; format: functional; conditions: ATCC 9341, 18 h
Enterococcus hirae [39] = test: Antimicrobial activity against Enterococcus hirae ATCC 10541 at 5 ug after 18 hrs by disk diffusion method; format: functional, organism-based
Staphylococcus aureus [40] = test: Antimicrobial activity against Methicillin susceptible Staphylococcus aureus 242/7 by twofold dilution technique; format: functional

Question: What does the source list for O=C(O)c1cn(C2CC2)c2cc(N3CCNCC3)c(F)cc2c1=O [CIPROFLOXACIN]?
Answer: MIC (Staphylococcus aureus [1]): 4 µg/mL (≈ 12.1 µM); MIC (Staphylococcus aureus [2]): > 8 µg/mL; MIC (Staphylococcus aureus [3]): > 8 µg/mL; MIC (Staphylococcus aureus [4]): 0.5 µg/mL (≈ 1.51 µM); MIC (Bacillus cereus [5]): 1 µg/mL (≈ 3.02 µM); MIC (Staphylococcus aureus [6]): 0.5 µg/mL (≈ 1.51 µM); MIC (Bacillus subtilis [7]): 2 µg/mL (≈ 6.04 µM); MIC (Staphylococcus aureus [8]): 0.5 µg/mL (≈ 1.51 µM); zone of inhibition at 5 µg/disc (Micrococcus luteus [9]): 24 mm; zone of inhibition at 5 µg/disc (Staphylococcus aureus [10]): 26 mm; MIC [11]: 4 µg/mL (≈ 12.1 µM); MIC (Staphylococcus aureus [12]): 0.5 µg/mL (≈ 1.51 µM); zone of inhibition at 5 µg/disc (Staphylococcus aureus [13]): 26 mm; MIC (Enterococcus hirae [14]): 0.5 µg/mL (≈ 1.51 µM); zone of inhibition at 5 µg/disc (Staphylococcus aureus [15]): 28 mm; MIC (Staphylococcus aureus [16]): > 8 µg/mL; MIC (Staphylococcus aureus [17]): 0.5 µg/mL (≈ 1.51 µM); MIC (Staphylococcus aureus [18]): 0.5 µg/mL (≈ 1.51 µM); MIC (Staphylococcus aureus [19]): 0.5 µg/mL (≈ 1.51 µM); MIC (Staphylococcus aureus [20]): 0.5 µg/mL (≈ 1.51 µM); MIC (Staphylococcus aureus [21]): > 8 µg/mL; MIC (Staphylococcus aureus [22]): > 8 µg/mL; MIC (Staphylococcus aureus [23]): > 8 µg/mL; zone of inhibition at 5 µg/disc (Bacillus subtilis [24]): 40 mm; MIC (Staphylococcus aureus [25]): 0.5 µg/mL (≈ 1.51 µM); MIC (Staphylococcus aureus [26]): 4 µg/mL (≈ 12.1 µM); MIC (Micrococcus luteus [27]): 0.5 µg/mL (≈ 1.51 µM); MIC (Staphylococcus aureus [28]): 0.5 µg/mL (≈ 1.51 µM); zone of inhibition at 5 µg/disc [29]: 30 mm; MIC (Staphylococcus aureus [30]): > 8 µg/mL; MIC (Staphylococcus aureus [31]): 2 µg/mL (≈ 6.04 µM); zone of inhibition at 5 µg/disc (Staphylococcus aureus [32]): 22 mm; MIC (Staphylococcus aureus [33]): < 0.125 µg/mL; MIC (Staphylococcus aureus [34]): 1 µg/mL (≈ 3.02 µM); MIC (Staphylococcus aureus [35]): > 8 µg/mL; zone of inhibition at 5 µg/disc (Micrococcus luteus [36]): 22 mm; zone of inhibition at 5 µg/disc (Bacillus cereus [37]): 20 mm; MIC (Micrococcus luteus [38]): 0.5 µg/mL (≈ 1.51 µM); diameter of the inhibition zone (DIZ) (Enterococcus hirae [39]): inactive; MIC (Staphylococcus aureus [40]): 0.5 µg/mL (≈ 1.51 µM)
